Measured values published in patent publication US9745321B2, “Fused pyrimidine compound, intermediate, preparation method therefor, and composition and application thereof” (SHANGHAI YINGLI PHARMACEUTICAL CO., LTD, priority 2013, dated 2017).

How the values were obtained:
[1] = target: PI3Kβ (Homo sapiens (Human), UniProt P42338); assay: PI3Kβ enzyme activity inhibition IC50 evaluation assay; format: biochemical; conditions: ratio PI3Kβ vs PI3Kδ
Description: (§1) PI3Kα, PI3Kδ, PI3Kβ and PI3Kγ Enzyme Activity Inhibition IC50 Evaluation Assay
(§2) • 1. Buffer preparation: 50 mM HEPES, pH 7.5, 3 mM MgCl2, 1 mM EGTA, 100 mM NaCl, 0.03% CHAPS. • 2. Compound was formulated in 100% DMSO in a concentration gradient, and added to a 384-well plate to a final DMSO concentration of 1%. • 3. PI3Kα, PI3Kδ, PI3Kβ and PI3Kγ enzymes were diluted to an optimum concentration with the following buffer: 50 mM HEPES, pH 7.5, 3 mM MgCl2, 1 mM EGTA, 100 mM NaCl, 0.03% CHAPS, 2 mM DTT, and transferred to a 384-well plate and incubated with the compound for a certain time. • 4. Substrate was diluted to an optimum concentration with the following buffer: 50 mM HEPES, pH 7.5, 3 mM MgCl2, 1 mM EGTA, 100 mM NaCl, 0.03% CHAPS, 2 mM DTT, 50 μM PIP2, 25 μM ATP; then added to a 384-well plate to initiate the reaction, and for PI3Kα, PI3Kβ and PI3Kγ at room temperature reacted for 1 hr, for PI3Kδ at room temperature reacted for 2 hrs. For PI3Kβ and PI3Kγ, it was still necessary to further add 10 μL ADP-Glo Detection Reagent, and then equilibrated at room temperature for 30 minutes. • 5. Read Luminescense with FlexStation, and calculate the inhibition rate as the average of two tests.

[2] = target: PI3Kα (Homo sapiens (Human), UniProt P42336); assay: PI3Kα enzyme activity inhibition IC50 evaluation assay; format: biochemical; conditions: ratio PI3Kα vs PI3Kδ
Procedure, shortened: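 Enzymes were preincubated with compound (1% DMSO final) in HEPES pH 7.5 buffer with MgCl2, EGTA, NaCl, CHAPS and 2 mM DTT. Reaction started with 50 μM PIP2 and 25 μM ATP, 1 h at room temperature. Luminescence was read, with ADP-Glo detection reagent added for β and γ; inhibition is the mean of two tests.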

[3] = target: PI3Kγ (Homo sapiens (Human), UniProt P48736); assay: PI3Kγ enzyme activity inhibition IC50 evaluation assay; format: biochemical; conditions: ratio PI3Kγ vs PI3Kδ
Description: as §1, §2

[4] = target: PI3Kδ (Homo sapiens (Human), UniProt O00329); assay: PI3Kδ enzyme activity inhibition IC50 evaluation assay; format: biochemical; conditions: luminescence, 25 μM ATP, 50 μM PIP2, 2 hrs room temperature
Procedure, shortened: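 Enzyme was preincubated with compound dilutions at 1% DMSO final in 50 mM HEPES pH 7.5, 3 mM MgCl2, 1 mM EGTA, 100 mM NaCl, 0.03% CHAPS, 2 mM DTT. Activity was read by luminescence, and inhibition rate is the mean of two tests.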

[5] = test system: Raji cells; assay: Inhibition of TNF-α generation of human Raji cell induced by human IgM; format: cell-based; conditions: 10 μg/ml IgM stimulation, 24 hrs, ELISA
Description: Screening Test for a Drug on Inhibiting TNF-α Generation of Human Raji Cell Induced by Human IgM
• 1. Raji cell lines (source of human Burkitt's lymphoma) were employed. • 2. 1×10^5/well Raji cells were plated onto a 96-well cell culture plate. • 3. Compounds to be screened were diluted to the corresponding test concentrations and added into the cell culture system 30 minutes before IgM stimulation. • 4. 10 μg/ml IgM monoclonal antibody was added into the cell culture system to stimulate the cells generating TNF-α. • 5. 24 hrs later, the amount of TNF-α generated by the cell system was measured by ELISA method. • 6.

Sequence of PI3Kα (P42336 whole entry): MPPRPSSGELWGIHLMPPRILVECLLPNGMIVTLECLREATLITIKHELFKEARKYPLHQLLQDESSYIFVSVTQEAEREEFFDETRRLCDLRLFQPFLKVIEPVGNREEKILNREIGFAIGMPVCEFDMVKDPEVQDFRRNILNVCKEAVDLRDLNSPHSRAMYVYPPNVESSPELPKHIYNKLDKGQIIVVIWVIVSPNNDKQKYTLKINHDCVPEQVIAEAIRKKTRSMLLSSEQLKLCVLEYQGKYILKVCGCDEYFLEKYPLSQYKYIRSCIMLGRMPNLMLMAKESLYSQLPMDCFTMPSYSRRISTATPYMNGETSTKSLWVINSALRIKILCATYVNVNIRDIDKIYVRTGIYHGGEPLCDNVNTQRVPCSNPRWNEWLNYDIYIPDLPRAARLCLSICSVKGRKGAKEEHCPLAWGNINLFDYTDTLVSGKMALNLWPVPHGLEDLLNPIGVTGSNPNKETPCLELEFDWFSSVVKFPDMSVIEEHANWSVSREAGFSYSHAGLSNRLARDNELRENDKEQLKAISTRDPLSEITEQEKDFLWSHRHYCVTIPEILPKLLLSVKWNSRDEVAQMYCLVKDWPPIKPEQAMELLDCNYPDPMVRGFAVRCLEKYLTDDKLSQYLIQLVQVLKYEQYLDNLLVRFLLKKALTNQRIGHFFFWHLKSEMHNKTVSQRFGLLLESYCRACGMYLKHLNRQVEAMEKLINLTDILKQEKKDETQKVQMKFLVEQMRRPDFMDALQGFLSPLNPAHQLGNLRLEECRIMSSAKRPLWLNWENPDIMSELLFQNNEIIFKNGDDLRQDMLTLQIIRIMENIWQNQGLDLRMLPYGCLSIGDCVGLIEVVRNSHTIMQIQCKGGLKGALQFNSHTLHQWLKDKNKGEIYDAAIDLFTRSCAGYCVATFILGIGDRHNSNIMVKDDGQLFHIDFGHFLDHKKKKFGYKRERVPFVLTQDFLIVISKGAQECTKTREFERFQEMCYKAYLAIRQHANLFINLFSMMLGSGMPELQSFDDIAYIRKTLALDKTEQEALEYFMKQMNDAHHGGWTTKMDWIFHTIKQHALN
Sequence of PI3Kα (P27986 whole entry partner): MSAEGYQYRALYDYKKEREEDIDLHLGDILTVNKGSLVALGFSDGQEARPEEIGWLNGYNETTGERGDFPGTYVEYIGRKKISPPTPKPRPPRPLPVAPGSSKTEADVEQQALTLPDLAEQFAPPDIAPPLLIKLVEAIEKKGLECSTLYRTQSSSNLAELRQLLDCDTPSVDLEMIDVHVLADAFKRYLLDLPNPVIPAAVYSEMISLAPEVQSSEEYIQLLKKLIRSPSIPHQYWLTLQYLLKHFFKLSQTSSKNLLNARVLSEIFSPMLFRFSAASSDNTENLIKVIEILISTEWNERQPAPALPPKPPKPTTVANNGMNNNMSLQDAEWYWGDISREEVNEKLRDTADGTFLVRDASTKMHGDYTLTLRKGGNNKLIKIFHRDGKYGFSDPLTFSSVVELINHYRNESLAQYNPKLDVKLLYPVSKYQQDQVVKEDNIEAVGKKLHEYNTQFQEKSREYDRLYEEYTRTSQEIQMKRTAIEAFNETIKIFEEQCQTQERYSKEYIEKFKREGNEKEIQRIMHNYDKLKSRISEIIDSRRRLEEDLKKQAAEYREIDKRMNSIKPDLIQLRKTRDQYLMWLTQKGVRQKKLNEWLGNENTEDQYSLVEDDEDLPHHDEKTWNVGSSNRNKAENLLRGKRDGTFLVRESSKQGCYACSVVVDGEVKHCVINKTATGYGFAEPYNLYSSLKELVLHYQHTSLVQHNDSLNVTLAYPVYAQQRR
Sequence of PI3Kδ (O00329 whole entry): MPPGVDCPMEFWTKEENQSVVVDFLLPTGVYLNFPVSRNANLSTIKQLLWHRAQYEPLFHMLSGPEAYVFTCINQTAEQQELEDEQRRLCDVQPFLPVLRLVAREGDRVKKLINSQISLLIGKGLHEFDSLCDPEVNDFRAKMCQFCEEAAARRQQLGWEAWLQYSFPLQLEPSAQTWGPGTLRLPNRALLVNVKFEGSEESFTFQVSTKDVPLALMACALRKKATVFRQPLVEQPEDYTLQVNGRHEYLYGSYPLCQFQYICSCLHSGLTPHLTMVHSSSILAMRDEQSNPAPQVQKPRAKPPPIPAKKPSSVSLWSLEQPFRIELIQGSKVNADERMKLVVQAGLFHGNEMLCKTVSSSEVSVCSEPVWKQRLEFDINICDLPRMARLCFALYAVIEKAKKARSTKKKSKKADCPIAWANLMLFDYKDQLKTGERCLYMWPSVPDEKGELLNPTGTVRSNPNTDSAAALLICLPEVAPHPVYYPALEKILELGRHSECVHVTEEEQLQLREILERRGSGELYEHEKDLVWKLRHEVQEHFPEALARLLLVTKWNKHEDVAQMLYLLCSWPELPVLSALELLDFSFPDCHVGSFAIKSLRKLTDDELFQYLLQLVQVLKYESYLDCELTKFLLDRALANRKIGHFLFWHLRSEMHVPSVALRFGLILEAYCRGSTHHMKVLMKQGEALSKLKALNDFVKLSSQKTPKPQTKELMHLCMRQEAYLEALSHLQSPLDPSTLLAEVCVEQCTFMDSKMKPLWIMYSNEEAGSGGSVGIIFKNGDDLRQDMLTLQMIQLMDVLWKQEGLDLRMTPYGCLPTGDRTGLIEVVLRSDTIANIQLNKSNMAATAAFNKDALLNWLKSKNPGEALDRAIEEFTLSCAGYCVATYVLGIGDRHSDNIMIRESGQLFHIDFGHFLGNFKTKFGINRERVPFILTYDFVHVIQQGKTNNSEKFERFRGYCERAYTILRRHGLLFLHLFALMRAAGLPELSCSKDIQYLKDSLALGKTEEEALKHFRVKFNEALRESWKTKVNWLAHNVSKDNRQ
Sequence of PI3Kδ (P27986 whole entry partner): as the sequence (P27986 whole entry partner) above
Sequence of PI3Kβ (P42338 whole entry): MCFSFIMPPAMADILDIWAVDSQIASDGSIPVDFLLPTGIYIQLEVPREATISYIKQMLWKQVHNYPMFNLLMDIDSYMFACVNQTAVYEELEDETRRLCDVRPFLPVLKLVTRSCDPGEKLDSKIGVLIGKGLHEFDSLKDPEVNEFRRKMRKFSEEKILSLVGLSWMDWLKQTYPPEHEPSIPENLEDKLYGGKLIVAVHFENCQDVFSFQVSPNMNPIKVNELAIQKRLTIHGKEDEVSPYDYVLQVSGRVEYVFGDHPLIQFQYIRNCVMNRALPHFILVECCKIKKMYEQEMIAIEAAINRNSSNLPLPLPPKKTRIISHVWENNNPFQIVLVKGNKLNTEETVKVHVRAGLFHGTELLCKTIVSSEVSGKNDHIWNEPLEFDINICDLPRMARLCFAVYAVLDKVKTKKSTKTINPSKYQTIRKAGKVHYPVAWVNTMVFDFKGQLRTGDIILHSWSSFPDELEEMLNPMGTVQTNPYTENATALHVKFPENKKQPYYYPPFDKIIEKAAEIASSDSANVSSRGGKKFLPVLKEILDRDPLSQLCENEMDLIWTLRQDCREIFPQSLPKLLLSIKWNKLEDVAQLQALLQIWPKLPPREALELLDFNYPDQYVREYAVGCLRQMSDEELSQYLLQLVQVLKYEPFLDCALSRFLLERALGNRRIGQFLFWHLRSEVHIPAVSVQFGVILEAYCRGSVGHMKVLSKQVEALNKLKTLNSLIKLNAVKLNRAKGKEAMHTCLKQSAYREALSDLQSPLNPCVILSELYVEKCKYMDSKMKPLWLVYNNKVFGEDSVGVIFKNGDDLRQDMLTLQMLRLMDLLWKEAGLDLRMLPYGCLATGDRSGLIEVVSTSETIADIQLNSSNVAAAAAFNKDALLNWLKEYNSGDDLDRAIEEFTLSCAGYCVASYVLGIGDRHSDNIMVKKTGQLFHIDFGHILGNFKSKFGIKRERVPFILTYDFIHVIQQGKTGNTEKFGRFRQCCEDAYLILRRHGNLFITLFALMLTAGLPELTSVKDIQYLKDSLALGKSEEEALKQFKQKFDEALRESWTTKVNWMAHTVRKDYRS
Sequence of PI3Kβ (P27986 whole entry partner): as the sequence (P27986 whole entry partner) above
Sequence of PI3Kγ (P48736 whole entry): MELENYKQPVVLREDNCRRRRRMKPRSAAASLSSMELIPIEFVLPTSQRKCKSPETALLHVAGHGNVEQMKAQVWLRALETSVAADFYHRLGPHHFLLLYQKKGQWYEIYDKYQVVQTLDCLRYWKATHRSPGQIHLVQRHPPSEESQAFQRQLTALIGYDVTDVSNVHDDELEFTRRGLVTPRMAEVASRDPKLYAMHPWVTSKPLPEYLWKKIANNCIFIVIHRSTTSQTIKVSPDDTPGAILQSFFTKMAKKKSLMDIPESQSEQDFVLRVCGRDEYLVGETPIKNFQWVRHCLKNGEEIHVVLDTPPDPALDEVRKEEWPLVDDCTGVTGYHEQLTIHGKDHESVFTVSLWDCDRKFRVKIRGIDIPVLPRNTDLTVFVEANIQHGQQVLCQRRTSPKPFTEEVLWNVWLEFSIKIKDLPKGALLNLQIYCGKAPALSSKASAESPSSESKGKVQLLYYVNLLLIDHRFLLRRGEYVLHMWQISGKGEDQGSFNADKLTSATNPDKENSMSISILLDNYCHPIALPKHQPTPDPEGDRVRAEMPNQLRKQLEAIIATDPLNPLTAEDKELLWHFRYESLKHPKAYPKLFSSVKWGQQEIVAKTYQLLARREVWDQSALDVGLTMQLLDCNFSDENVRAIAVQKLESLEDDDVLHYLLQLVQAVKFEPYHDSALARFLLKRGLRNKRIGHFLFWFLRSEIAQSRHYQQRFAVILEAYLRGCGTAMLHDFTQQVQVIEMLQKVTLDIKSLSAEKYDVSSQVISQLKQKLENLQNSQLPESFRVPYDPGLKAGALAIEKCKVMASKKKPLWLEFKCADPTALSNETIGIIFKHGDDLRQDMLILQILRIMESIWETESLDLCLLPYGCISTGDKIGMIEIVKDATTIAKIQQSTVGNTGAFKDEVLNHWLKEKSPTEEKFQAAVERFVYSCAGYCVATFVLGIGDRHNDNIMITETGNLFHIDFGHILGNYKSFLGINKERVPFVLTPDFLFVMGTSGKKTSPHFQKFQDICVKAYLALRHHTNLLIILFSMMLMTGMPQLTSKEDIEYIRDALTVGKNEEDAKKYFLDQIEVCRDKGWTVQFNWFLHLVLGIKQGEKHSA

Row | Compound | β/δ selectivity [1] | α/δ selectivity [2] | γ/δ selectivity [3] | IC50 [4] [nM] | IC50 [5] [nM]
1 | CC(C)(O)C1CCN(Cc2csc3c(-c4cccc5[nH]ccc45)nc(N4CCOCC4)nc23)CC1 [Compound 4] | >282 | >282 | >282 | 35.4 | –
2 | Cc1sc2c(-c3cccc4[nH]ccc34)nc(N3CCOCC3)nc2c1CN1CCN(C(=O)CO)CC1 [Compound 8] | 27 | 90 | 57 | 72 | –
3 | COc1ncc(-c2nc(N3CCOCC3)nc3c(CN4CCN(C)CC4)c(C)sc23)cc1NS(C)(=O)=O [Compound 65] | 94 | 174 | >571 | 17.5 | 15.4
4 | COc1ncc(-c2nc(N3CCOCC3)nc3c(CN4CCC(C(C)(C)OC)CC4)c(C)sc23)cc1NS(C)(=O)=O [Compound 78] | 18 | 302 | >1298 | 7.7 | 10.6
5 | COc1ncc(-c2nc(N3CCOCC3)nc3c(CN4CCC(C(C)(C)F)CC4)c(C)sc23)cc1NS(C)(=O)=O [Compound 85] | 69 | 401 | >1162 | 8.6 | 39.1
6 | COc1ncc(-c2nc(N3CCOCC3)nc3c(CN4CCN(C(C)C)CC4)c(C)sc23)cc1NS(C)(=O)=O [Compound 91] | – | 60 | – | 3.2 | 3.4
7 | COc1ncc(-c2nc(N3CCOCC3)nc3c(CN4CCC(N(C)C(C)C)CC4)c(C)sc23)cc1NS(C)(=O)=O [Compound 95] | 167 | 157 | 532 | 6.5 | 1.1
8 | COc1ncc(-c2nc(N3CCOCC3)nc3c(CN4CCC(C)(C)CC4)c(C)sc23)cc1NS(C)(=O)=O [Compound 99] | 24 | 152 | 244 | 34 | –
9 | COc1ncc(-c2nc(N3CCOCC3)nc3c(CN4CCN(C(=O)CC#N)CC4)c(C)sc23)cc1NS(C)(=O)=O [Compound 100] | – | 17 | – | 17 | 5.7
10 | CCOC1CCN(Cc2c(C)sc3c(-c4cnc(OC)c(NS(C)(=O)=O)c4)nc(N4CCOCC4)nc23)CC1 [Compound 103] | – | 176 | – | 8.4 | 9.3
11 | COc1ncc(-c2nc(N3CCOCC3)nc3c(CN4CCC(O)CC4)c(C)sc23)cc1NS(C)(=O)=O [Compound 108] | 6 | 78 | 262 | 13 | –
12 | COc1ncc(-c2nc(N3CCOCC3)nc3c(CN4CCN(C(C)(C)C)CC4)c(C)sc23)cc1NS(=O)(=O)C1CC1 [Compound 109] | 723 | 251 | 1296 | 3.9 | –
13 | CCN(CC)C1CCN(Cc2c(C)sc3c(-c4cnc(OC)c(NS(C)(=O)=O)c4)nc(N4CCOCC4)nc23)CC1 [Compound 110] | 275 | 203 | 1112 | 4.1 | 3.3
14 | COc1ncc(-c2nc(N3CCOCC3)nc3c(CN4CCC(N5CCC[C@H]5CO)CC4)c(C)sc23)cc1NS(C)(=O)=O [Compound 126] | – | 170 | – | 4.7 | 3.9

Results, then the compound that gave them:

Row | β/δ selectivity [1] | α/δ selectivity [2] | γ/δ selectivity [3] | IC50 [4] [nM] | IC50 [5] [nM] | Compound
15 | 24 | 257 | >840 | 11.9 | 6.7 | COc1ncc(-c2nc(N3CCOCC3)nc3c(CN4CCC(OC)CC4)c(C)sc23)cc1NS(C)(=O)=O [Compound 83]
16 | 25 | 136 | 402 | 12 | – | COc1ncc(-c2nc(N3CCOCC3)nc3c(CN4CCCCC4)c(C)sc23)cc1NS(C)(=O)=O [Compound 86]
17 | 45 | 204 | 498 | 12.5 | 41.6 | COc1ncc(-c2nc(N3CCOCC3)nc3c(CN4CCN(CC(F)(F)F)CC4)c(C)sc23)cc1NS(C)(=O)=O [Compound 87]
18 | 73 | 548 | 1202 | 5.8 | 6.1 | COc1ncc(-c2nc(N3CCOCC3)nc3c(CN4CCC(C(C)C)CC4)c(C)sc23)cc1NS(C)(=O)=O [Compound 88]
19 | 29 | 390 | 482 | 12 | 32.6 | COc1ncc(-c2nc(N3CCOCC3)nc3c(CN4CCC(C)CC4)c(C)sc23)cc1NS(C)(=O)=O [Compound 101]
20 | 16 | 146 | 200 | 9.3 | – | COc1ncc(-c2nc(N3CCOCC3)nc3c(CN4CCCC4)c(C)sc23)cc1NS(C)(=O)=O [Compound 102]
21 | 19 | 159 | 377 | 4.3 | – | COc1ncc(-c2nc(N3CCOCC3)nc3c(CN4CCC5(CC4)OCCO5)c(C)sc23)cc1NS(C)(=O)=O [Compound 104]
22 | 72 | 129 | >392 | 25.5 | – | COc1ncc(-c2nc(N3CCOCC3)nc3c(CN4CCC5(CC4)CNC5)c(C)sc23)cc1NS(C)(=O)=O [Compound 106]
23 | 126 | 108 | 611 | 7.6 | 1.1 | COc1ncc(-c2nc(N3CCOCC3)nc3c(CN4CCC(N5CCCC5)CC4)c(C)sc23)cc1NS(C)(=O)=O [Compound 112]
24 | – | 192 | – | 16 | 33.7 | COc1ncc(-c2nc(N3CCOCC3)nc3c(CN4CC(N(C)C)C4)c(C)sc23)cc1NS(C)(=O)=O [Compound 121]
25 | – | 38 | – | 5.8 | 1.5 | COc1ncc(-c2nc(N3CCOCC3)nc3c(CN4CCC(N5CCC[C@@H]5C)CC4)c(C)sc23)cc1NS(C)(=O)=O [Compound 127]
26 | 140 | 225 | 567 | 4.6 | 3.3 | COc1ncc(-c2nc(N3CCOCC3)nc3c(CN4CCC(N5CCCCC5)CC4)c(C)sc23)cc1NS(C)(=O)=O [Compound 147]
27 | 110 | 280 | 587 | 4.7 | 7 | COc1ncc(-c2nc(N3CCOCC3)nc3c(CN4CCC(N5CCC5)CC4)c(C)sc23)cc1NS(C)(=O)=O [Compound 148]
28 | 15 | 39 | 221 | 9.3 | 8.6 | COc1ncc(-c2nc(N3CCOCC3)nc3c(CN4CCC(N5CCCCC5=O)CC4)c(C)sc23)cc1NS(C)(=O)=O [Compound 150]
29 | 418 | 42 | >909 | 11 | 0.6 | COc1ncc(-c2nc(N3CCOCC3)nc3c(OC4CCC(N5CCCCC5)CC4)c(C)sc23)cc1NS(C)(=O)=O (stereo not shown) [Compound 153]
